Data reported in patent US20210341496A1, “Systems and Methods for Detecting or Monitoring Insulin” (The Florida State University Research Foundation, Inc., priority 2020, published 2021).

System: murine islets
Experiment: Synchronization of GSIS from grouped islets by periodic CCh pulses
Type: cell-based
Conditions: 5 islets, constant 11 mM glucose, 30 s every 5 min
Description: CCh, an M3R agonist, synchronizes glucose-induced islet activity as measured by synchronized oscillations of [Ca^2+]i levels. Because no recording of insulin release has been reported after delivery of CCh pulses, synchronized hormone secretion had not previously been verified. Using the newly-developed anisotropy method, it was tested whether GSIS from grouped islets can be entrained during periodic application of CCh.
For this experiment, reagent reservoirs connected to inlets 1 and 2 contained 11 mM glucose and 10 μM CCh in 11 mM glucose, respectively. A group of 5 islets were loaded into the islet chamber that had been filled with 11 mM glucose. After sealing the chamber, islets were continuously perfused with constant 11 mM glucose from inlet 1. CCh pulses were generated by switching the flow from inlet 1 to inlet 2. Pulse profiles consisted of 5 pulses (denoted by ‘x’ in FIG. 10A and FIG. 10B) each delivered for 30 s every 5 min. Considering broadening of each pulse (FIG. 3C), islets were exposed to an effective [CCh] of 4.7 μM.
In FIG. 10A and FIG. 10B, the glucose level remained constant at 11 mM. In the islet chamber during each experiment were 5 islets. In FIG. 10A, GSIS was synchronized by a train of 5 CCh pulses. Each 30 second pulse, ‘x’, was delivered every 5 minutes from 5 to 25 minutes. Numbered insulin peaks highlight oscillations likely stimulated by a CCh pulse. […]

C[N+](C)(C)CCOC(N)=O [CCh, carbachol]
insulin spikes after CCh pulses, average of final 3 spikes (5 pulses of 10 μM CCh (effective 4.7 μM)): 78±12 pg min^−1 islet^−1 | synchronization of GSIS (train of 5 CCh pulses): synchronized
